Experimental data published in patent US20220242846A1, “ISOINDOLINONE COMPOUNDS” (Monte Rosa Therapeutics AG, priority 2019, published 2022).

Molecular target: GSPT1 (Homo sapiens, UniProt P15170+Q96SW2)
Assay: Immunofluorescence assay for GSPT1 degradation in CAL-51 cells
Format: cell-based
Design: CAL-51 cells were purchased from DSMZ (cat. Number ACC302); endogenous in cells; host or cells: CAL-51 (DSMZ ACC302)
Details: compound treatment 6 hours, read-out: Code: activity for GSPT1 degradation (DC50)
Summary of the method: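 CAL-51 cells on fibronectin-coated plates treated 6 h with compound (30 μM to 0.1 nM); fixed, stained with anti-GSPT1/Alexa-488, phalloidin and DAPI, imaged by high-content microscopy. Mean GSPT1 intensity per cell normalized to controls; DC50 by non-linear regression.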

Chain of GSPT1 (P15170 whole entry): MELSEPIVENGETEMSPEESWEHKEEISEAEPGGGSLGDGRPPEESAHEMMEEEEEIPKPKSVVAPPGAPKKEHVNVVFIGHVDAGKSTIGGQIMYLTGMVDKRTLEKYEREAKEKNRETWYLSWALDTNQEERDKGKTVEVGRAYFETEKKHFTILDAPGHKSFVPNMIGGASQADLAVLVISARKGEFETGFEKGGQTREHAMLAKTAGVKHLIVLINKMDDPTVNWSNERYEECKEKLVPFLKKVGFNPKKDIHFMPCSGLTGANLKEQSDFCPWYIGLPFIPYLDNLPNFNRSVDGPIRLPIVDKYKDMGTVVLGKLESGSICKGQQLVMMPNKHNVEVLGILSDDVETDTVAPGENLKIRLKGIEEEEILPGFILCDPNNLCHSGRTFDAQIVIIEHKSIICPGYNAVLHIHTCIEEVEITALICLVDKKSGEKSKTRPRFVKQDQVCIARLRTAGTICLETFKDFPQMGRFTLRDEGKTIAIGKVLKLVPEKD
Chain of GSPT1 (Q96SW2 whole entry): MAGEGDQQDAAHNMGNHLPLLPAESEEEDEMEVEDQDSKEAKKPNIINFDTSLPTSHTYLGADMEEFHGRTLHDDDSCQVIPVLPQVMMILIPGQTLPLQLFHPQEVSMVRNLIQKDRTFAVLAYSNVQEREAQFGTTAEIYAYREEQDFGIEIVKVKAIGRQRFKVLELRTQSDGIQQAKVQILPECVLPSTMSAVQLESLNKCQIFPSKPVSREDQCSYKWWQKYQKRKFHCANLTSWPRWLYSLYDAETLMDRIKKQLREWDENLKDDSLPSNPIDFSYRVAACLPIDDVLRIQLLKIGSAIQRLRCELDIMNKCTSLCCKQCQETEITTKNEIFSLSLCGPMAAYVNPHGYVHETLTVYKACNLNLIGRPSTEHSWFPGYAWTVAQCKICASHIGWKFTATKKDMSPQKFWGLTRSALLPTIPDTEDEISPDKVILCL
Chain of GSPT1 (Q16531 2-1140 partner limits assumed): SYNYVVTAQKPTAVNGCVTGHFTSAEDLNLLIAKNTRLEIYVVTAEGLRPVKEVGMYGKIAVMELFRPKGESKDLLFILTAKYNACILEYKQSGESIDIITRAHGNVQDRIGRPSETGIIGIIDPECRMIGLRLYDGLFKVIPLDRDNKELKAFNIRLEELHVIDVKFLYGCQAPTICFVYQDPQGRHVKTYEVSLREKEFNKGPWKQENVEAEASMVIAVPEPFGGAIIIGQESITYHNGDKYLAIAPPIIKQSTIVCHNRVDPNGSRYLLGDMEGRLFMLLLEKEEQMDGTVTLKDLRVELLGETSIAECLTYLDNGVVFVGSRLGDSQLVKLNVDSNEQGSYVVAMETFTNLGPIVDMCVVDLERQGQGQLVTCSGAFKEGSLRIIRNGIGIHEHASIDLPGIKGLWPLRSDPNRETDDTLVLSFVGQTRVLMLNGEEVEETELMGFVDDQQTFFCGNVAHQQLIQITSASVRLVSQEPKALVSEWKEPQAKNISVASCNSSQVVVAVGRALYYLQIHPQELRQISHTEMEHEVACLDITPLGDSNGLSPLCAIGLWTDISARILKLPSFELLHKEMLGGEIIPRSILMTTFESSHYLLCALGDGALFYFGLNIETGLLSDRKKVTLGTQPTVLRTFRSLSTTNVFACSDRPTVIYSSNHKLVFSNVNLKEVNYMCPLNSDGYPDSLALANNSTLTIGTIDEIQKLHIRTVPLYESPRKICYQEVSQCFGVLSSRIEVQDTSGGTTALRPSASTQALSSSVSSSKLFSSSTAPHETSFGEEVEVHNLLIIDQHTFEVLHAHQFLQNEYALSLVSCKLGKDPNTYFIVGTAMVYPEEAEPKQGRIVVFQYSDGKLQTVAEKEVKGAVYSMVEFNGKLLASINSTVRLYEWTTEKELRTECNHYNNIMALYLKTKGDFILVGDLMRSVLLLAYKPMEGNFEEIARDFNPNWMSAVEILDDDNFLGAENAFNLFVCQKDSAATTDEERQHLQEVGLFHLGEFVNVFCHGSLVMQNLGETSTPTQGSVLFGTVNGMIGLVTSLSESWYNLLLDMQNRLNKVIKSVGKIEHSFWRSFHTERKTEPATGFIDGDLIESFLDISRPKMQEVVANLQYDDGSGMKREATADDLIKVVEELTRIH

Row | SMILES | DC50 [nM]
1 | CC(C)(C)c1ccc(NC(=O)NCc2ccc3c(c2)C(=O)N(C2CCC(=O)NC2=O)C3)cc1 (stereo not shown) [Compound 56] | ≤ 100
2 | COc1ccc(C)cc1NC(=O)NCc1ccc2c(c1)C(=O)N(C1CCC(=O)NC1=O)C2 (stereo not shown) [Compound 17] | > 300
3 | O=C1CCC(N2Cc3ccc(CNC(=O)Nc4cc(F)ccc4F)cc3C2=O)C(=O)N1 (stereo not shown) [Compound 69] | > 300
4 | CC(C)c1ccc(NC(=O)NCc2ccc3c(c2)C(=O)N(C2CCC(=O)NC2=O)C3)cc1 (stereo not shown) [Compound 57] | > 300
5 | COc1cccc(NC(=O)NCc2ccc3c(c2)C(=O)N(C2CCC(=O)NC2=O)C3)c1 (stereo not shown) [Compound 6] | > 300
6 | Cc1ccc(F)cc1NC(=O)NCc1ccc2c(c1)C(=O)N(C1CCC(=O)NC1=O)C2 (stereo not shown) [Compound 62] | > 300
7 | O=C1CCC(N2Cc3ccc(CNC(=O)NCCc4ccccc4)cc3C2=O)C(=O)N1 (stereo not shown) [Compound 27] | > 300
8 | COc1ccc(NC(=O)NCc2ccc3c(c2)C(=O)N(C2CCC(=O)NC2=O)C3)c(C)c1 (stereo not shown) [Compound 23] | > 300
9 | C[C@@H](NC(=O)NCc1ccc2c(c1)C(=O)N(C1CCC(=O)NC1=O)C2)c1ccccc1 (stereo partly shown) [Compound 54] | > 300

Tested on: Human mammary epithelial cells (HMEC) engineered to express c-myc tagged with EGFP
Assay: 3D spheroid assay, myc-HMEC (CellTiterGlo3D viability)
Format: cell-based
Details: Homo sapiens, HMEC, 120 h, 3D spheroids, 5 days with compound, read-out: Code: EC50 value in the myc-HMEC assay
Method: (§1) 3D Spheroid Experiments—HMEC
(§2) Human mammary epithelial cells (HMEC) were engineered to express either c-myc tagged with EGFP or EGFP alone (non myc) (analogous but distinct from Kessler J D et al, Science. 2012 Jan. 20; 335(6066):348-53. doi: 10.1126/science.1212728; Hsu T Y et al, Nature. 2015 Sep. 17; 525(7569):384-8. doi: 10.1038/nature14985). The engineered cells were seeded at 1000 (myc) or 4000 (non myc) cells/well in a 384 ultra-low attachment plate in a total volume of 40 µL, HMEC cell culture media (DMEM/F12+10% HI-FBS+15 mM HEPES+0.5 ug/ml Hydrocortisone+10 ug/ml Insulin+20 ng/ml EGF). Plates were spun at 1200 rpm for 5 minutes at room temperature to ensure that cells have gathered in the middle of the well and incubated at 37° C. for 48 hrs before firing with compounds. On Day 2 (48 h post seeding) cells were imaged (brightfield and EGFP fluorescence) using the Celigo imaging cytometer prior to firing compounds. For primary screens, compounds were added at three concentrations (1.25, 10 and 30 uM) in a volume of 120 nL using the ECHO acoustic dispenser and spun at 2000 rpm for 2 minutes at room temperature before incubating at 37° C. for 5 days. […] On Day 7, prior to measuring cell viability using CellTiterGlo3D, cells were imaged (brightfield and EGFP fluorescence) on the Celigo imaging cytometer. The CellTiterGlo3D reagent is added at 30uL/well and incubated at room temperature for 30mins After 30mins of incubation, luminescence readings were recorded using the Perkin Elmer EnVision reader.

Row | SMILES | EC50 [nM]
10 | CC(C)(C)c1ccc(NC(=O)NCc2ccc3c(c2)C(=O)N(C2CCC(=O)NC2=O)C3)cc1 (stereo not shown) [Compound 56] | ≤ 400
11 | COc1ccc(C)cc1NC(=O)NCc1ccc2c(c1)C(=O)N(C1CCC(=O)NC1=O)C2 (stereo not shown) [Compound 17] | > 2000
12 | O=C1CCC(N2Cc3ccc(CNC(=O)Nc4cc(F)ccc4F)cc3C2=O)C(=O)N1 (stereo not shown) [Compound 69] | > 2000
13 | CC(C)c1ccc(NC(=O)NCc2ccc3c(c2)C(=O)N(C2CCC(=O)NC2=O)C3)cc1 (stereo not shown) [Compound 57] | > 2000
14 | COc1cccc(NC(=O)NCc2ccc3c(c2)C(=O)N(C2CCC(=O)NC2=O)C3)c1 (stereo not shown) [Compound 6] | > 2000
15 | Cc1ccc(F)cc1NC(=O)NCc1ccc2c(c1)C(=O)N(C1CCC(=O)NC1=O)C2 (stereo not shown) [Compound 62] | > 2000
16 | O=C1CCC(N2Cc3ccc(CNC(=O)NCCc4ccccc4)cc3C2=O)C(=O)N1 (stereo not shown) [Compound 27] | > 2000
17 | COc1ccc(NC(=O)NCc2ccc3c(c2)C(=O)N(C2CCC(=O)NC2=O)C3)c(C)c1 (stereo not shown) [Compound 23] | > 2000
18 | C[C@@H](NC(=O)NCc1ccc2c(c1)C(=O)N(C1CCC(=O)NC1=O)C2)c1ccccc1 (stereo partly shown) [Compound 54] | > 2000

Same assay, conditions: myc-HMEC 3D spheroids (compounds with code D and E), 5 days, read-out: EC50

Row | SMILES | EC50 [nM]
19 | CC(C)(C)c1ccc(NC(=O)NCc2ccc3c(c2)C(=O)N(C2CCC(=O)NC2=O)C3)cc1 (stereo not shown) [Compound 56] | 228

Tested on: Human mammary epithelial cells (HMEC) engineered to express EGFP alone (non myc)
Assay: 3D spheroid assay, non myc-HMEC (CellTiterGlo3D viability)
Format: cell-based
Details: 120 h, 3D spheroids, 5 days with compound, read-out: Code: EC50 value in the non myc-HMEC assay
Method: as §1, §2

Row | SMILES | EC50 [nM]
20 | CC(C)(C)c1ccc(NC(=O)NCc2ccc3c(c2)C(=O)N(C2CCC(=O)NC2=O)C3)cc1 (stereo not shown) [Compound 56] | > 10000
21 | COc1ccc(C)cc1NC(=O)NCc1ccc2c(c1)C(=O)N(C1CCC(=O)NC1=O)C2 (stereo not shown) [Compound 17] | > 10000
22 | O=C1CCC(N2Cc3ccc(CNC(=O)Nc4cc(F)ccc4F)cc3C2=O)C(=O)N1 (stereo not shown) [Compound 69] | > 10000
23 | CC(C)c1ccc(NC(=O)NCc2ccc3c(c2)C(=O)N(C2CCC(=O)NC2=O)C3)cc1 (stereo not shown) [Compound 57] | > 10000
24 | COc1cccc(NC(=O)NCc2ccc3c(c2)C(=O)N(C2CCC(=O)NC2=O)C3)c1 (stereo not shown) [Compound 6] | > 10000
25 | Cc1ccc(F)cc1NC(=O)NCc1ccc2c(c1)C(=O)N(C1CCC(=O)NC1=O)C2 (stereo not shown) [Compound 62] | > 10000
26 | O=C1CCC(N2Cc3ccc(CNC(=O)NCCc4ccccc4)cc3C2=O)C(=O)N1 (stereo not shown) [Compound 27] | > 10000
27 | COc1ccc(NC(=O)NCc2ccc3c(c2)C(=O)N(C2CCC(=O)NC2=O)C3)c(C)c1 (stereo not shown) [Compound 23] | > 10000
28 | C[C@@H](NC(=O)NCc1ccc2c(c1)C(=O)N(C1CCC(=O)NC1=O)C2)c1ccccc1 (stereo partly shown) [Compound 54] | > 10000

Molecular target: T1, Full length wild-type cereblon CRBN (Homo sapiens, UniProt Q96SW2)
T1 construct: Full length wild-type cereblon CRBN (80.0 nM, 10 μL) was incubated in assay buffer
T1 sequence (Q96SW2 whole entry): as the sequence (Q96SW2 whole entry) above
Assay: Fluorescence polarization (FP) assay indicating cereblon binding
Details: CRBN 80.0 nM, fluorescent probe 5 nM, FP measured after 12 hours; read-out: rFP IC50
Summary of the method: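 Full-length wild-type human CRBN (80.0 nM) preincubated 30 min at room temperature with compound (12-point curve, 300-0.937 or 3000-9.3 nM) in HEPES pH 8.0, NaCl, TCEP, Tween 20. Thalidomide-based Cy5-type probe then added at 5 nM final; FP read after 12 h (ex 590, em 675 nm), normalized to DMSO, IC50 derived.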

Row | SMILES | IC50 [nM]
29 | CC(C)(C)c1ccc(NC(=O)NCc2ccc3c(c2)C(=O)N(C2CCC(=O)NC2=O)C3)cc1 (stereo not shown) [Compound 56] | 434
30 | COc1ccc(C)cc1NC(=O)NCc1ccc2c(c1)C(=O)N(C1CCC(=O)NC1=O)C2 (stereo not shown) [Compound 17] | 514
31 | O=C1CCC(N2Cc3ccc(CNC(=O)Nc4cc(F)ccc4F)cc3C2=O)C(=O)N1 (stereo not shown) [Compound 69] | 381
32 | CC(C)c1ccc(NC(=O)NCc2ccc3c(c2)C(=O)N(C2CCC(=O)NC2=O)C3)cc1 (stereo not shown) [Compound 57] | 373
33 | COc1cccc(NC(=O)NCc2ccc3c(c2)C(=O)N(C2CCC(=O)NC2=O)C3)c1 (stereo not shown) [Compound 6] | 467
34 | Cc1ccc(F)cc1NC(=O)NCc1ccc2c(c1)C(=O)N(C1CCC(=O)NC1=O)C2 (stereo not shown) [Compound 62] | 441
35 | O=C1CCC(N2Cc3ccc(CNC(=O)NCCc4ccccc4)cc3C2=O)C(=O)N1 (stereo not shown) [Compound 27] | 444
36 | COc1ccc(NC(=O)NCc2ccc3c(c2)C(=O)N(C2CCC(=O)NC2=O)C3)c(C)c1 (stereo not shown) [Compound 23] | 464
37 | C[C@@H](NC(=O)NCc1ccc2c(c1)C(=O)N(C1CCC(=O)NC1=O)C2)c1ccccc1 (stereo partly shown) [Compound 54] | 471
